# Assay results taken from article PMC2765782 (Journal of medicinal chemistry, 2009).
# How the values were obtained:
# RXR [1] = molecular target: T1, RXR (Homo sapiens, UniProt P19793); details: for RXR binding and homodimerization relative to 1 (luciferase output): 10^−7 M, 24 h, Caco-2 cells, compound 1 set to 1.0 (Figure 3)
# T1 sequence (P19793 227-462 limits assumed): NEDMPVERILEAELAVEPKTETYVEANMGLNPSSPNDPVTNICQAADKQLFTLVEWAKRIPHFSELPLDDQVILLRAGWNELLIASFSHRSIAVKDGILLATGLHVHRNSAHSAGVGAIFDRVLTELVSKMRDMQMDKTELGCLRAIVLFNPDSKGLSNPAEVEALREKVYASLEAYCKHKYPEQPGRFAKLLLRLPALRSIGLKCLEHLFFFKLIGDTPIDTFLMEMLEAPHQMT
# [2] = test system: Human T-cell lymphoma (CTCL) cells (Hut78); details: 24 h, versus ethanol vehicle control (Figure 5)
# human RXRα [3] = molecular target: T2, human RXRα (Homo sapiens, UniProt P19793); details: 10^−7 M, 24 h, Caco-2 cells, versus ethanol control (Figure 4)
# T2 sequence (P19793 1-462): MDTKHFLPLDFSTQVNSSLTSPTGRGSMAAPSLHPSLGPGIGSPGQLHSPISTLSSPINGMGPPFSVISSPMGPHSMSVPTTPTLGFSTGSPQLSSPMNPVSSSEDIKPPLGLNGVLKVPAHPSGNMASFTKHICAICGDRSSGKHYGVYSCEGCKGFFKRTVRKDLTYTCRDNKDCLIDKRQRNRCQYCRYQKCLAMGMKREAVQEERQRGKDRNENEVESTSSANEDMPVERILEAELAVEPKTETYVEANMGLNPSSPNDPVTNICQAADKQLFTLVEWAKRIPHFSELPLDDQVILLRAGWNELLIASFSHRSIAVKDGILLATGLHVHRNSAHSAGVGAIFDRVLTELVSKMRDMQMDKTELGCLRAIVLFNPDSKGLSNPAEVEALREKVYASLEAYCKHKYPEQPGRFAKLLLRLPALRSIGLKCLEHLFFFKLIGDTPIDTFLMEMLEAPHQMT
# human RARα = molecular target: T3, human RARα (Homo sapiens, UniProt P10276); details: RARE-luciferase reporter, Caco-2 cells
# T3 sequence (P10276 1-462): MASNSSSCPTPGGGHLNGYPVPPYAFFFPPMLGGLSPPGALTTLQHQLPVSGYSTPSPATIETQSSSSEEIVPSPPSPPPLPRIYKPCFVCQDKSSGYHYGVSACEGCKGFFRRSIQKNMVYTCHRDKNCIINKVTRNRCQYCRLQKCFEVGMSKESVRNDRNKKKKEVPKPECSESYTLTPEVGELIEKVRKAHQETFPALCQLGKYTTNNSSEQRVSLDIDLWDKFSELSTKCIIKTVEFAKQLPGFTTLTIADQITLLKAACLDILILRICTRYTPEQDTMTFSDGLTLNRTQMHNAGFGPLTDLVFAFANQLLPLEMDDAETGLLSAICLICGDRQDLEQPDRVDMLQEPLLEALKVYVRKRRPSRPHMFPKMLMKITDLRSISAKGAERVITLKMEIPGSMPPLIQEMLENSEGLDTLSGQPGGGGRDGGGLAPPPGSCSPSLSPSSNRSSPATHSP
# T3 sequence (P19793 1-462 partner): T2 sequence (P19793 1-462)
# RXR [4] = molecular target: T1, RXR; experiment: cell-based
# human RXRα [5] = molecular target: T2, human RXRα; experiment: biochemical
# human RXRα [6] = molecular target: T2, human RXRα; details: based on Ki values of Table 1
Compound,RXR binding and homodimerization relative to 1 (luciferase output) (RXR [1]),apoptotic activity (caspases 3 and 7) [2],RXR-mediated transcriptional activity (RXRE-luciferase) (human RXRα [3]),RAR agonist activity compared with 1 (human RARα),EC50 (RXR [4]),Ki (human RXRα [5]),apparent RXR binding affinity greater than 1 (human RXRα [6]),"increase in efficacy based on EC50 values (RXR [1]; versus 1, Table 1)"
"Cc1cc2c(cc1C(=O)c1ccc(C(=O)O)cc1F)C(C)(C)CCC2(C)C [Compound 19, 3-Fluoro-4-(1-(3,5,5,8,8-pentamethyl-5,6,7,8-tetrahydronaphthalen-2-yl)carbonyl)benzoic acid]",does not bind to RXR,almost no apoptotic activity,,,,,,
"C=C(c1ccc(C(=O)O)c([N+](=O)[O-])c1)c1cc2c(cc1C)C(C)(C)CCC2(C)C [Compound 16, 4-(1-(1,2,3,4-Tetrahydro-1,1,4,4,6-pentamethylnaphthalen-7-yl)vinyl)-2-nitrobenzoic Acid]",,,transcriptional activity significantly above the ethanol control levels,slightly greater RAR agonist activity,200 nM,81 nM,,
"C=C(c1ccc(C(=O)O)c(F)c1)c1cc2c(cc1C)C(C)(C)CCC2(C)C [Compound 20, 2-fluoro-4-(1-(1,2,3,4-tetrahydro-1,1,4,4,6-pentamethylnaphthalen-7-yl)vinyl)benzoic acid]",,,transcriptional activity significantly above the ethanol control levels,approximately equal to 1,43 nM,12 nM,75%,20%
"5-(1-(1,2,3,4-Tetrahydro-1,1,4,4,6-pentamethylnaphthalen-7-yl)vinyl)benzene-1,3-dioic Acid [Compound 14]",,,did not display significant RXR binding and activation,,,,,
"C=C(c1cc2c(cc1C)C(C)(C)CCC2(C)C)c1ccc(C(=O)O)cc1F [Compound 18, 3-Fluoro-4-(1-(1,2,3,4-tetrahydro-1,1,4,4,6-pentamethylnaphthalen-7-yl)vinyl)benzoic acid]",about half as well as 1,,transcriptional activity significantly above the ethanol control levels,significantly lower RAR binding,420 nM,161 nM,,
"Cc1cc2c(cc1C(=O)c1ccc(C(=O)O)c(F)c1)C(C)(C)CCC2(C)C [Compound 21, 2-fluoro-4-(1-(3,5,5,8,8-pentamethyl-5,6,7,8-tetrahydronaphthalen-2-yl)carbonyl)benzoic acid]",a small degree of RXR binding and homodimerization relative to 1,,,,,,,
